“And” between values parts separate entries of the source, which are not always exact repeats. Identical values can stand only once. Like-named read-outs stand apart in the source and are kept apart here.
How the values were obtained:
Assay in all cases: cell-based
hNav1.7 [1] = target: T1, hNav1.7 (Homo sapiens, UniProt Q15858); assay type: cell-based; conditions: PatchXpress; * = at high concentrations compound would wash off slowly or not at all; read-out: PX hNav1.7 Tonic IC50
hNav1.5 [2] = target: T2, hNav1.5 (Homo sapiens, UniProt Q14524); conditions: IonWorks Quattro; read-out: IC50 Nav1.5
hNav1.4 [3] = target: T3, hNav1.4 (Homo sapiens, UniProt P35499); conditions: for IC50: IonWorks Quattro, read-out: IC50 Nav1.4; for Nav1.4/Nav1.7: ratio of IonWorks Quattro IC50 values
hNav1.5 [4] = target: T2, hNav1.5; conditions: for IC50: PatchXpress, * = at high concentrations compound would wash off slowly or not at all, read-out: PX hNav1.5 Tonic IC50
hNav1.7 [5] = target: T1, hNav1.7; conditions: IonWorks Quattro; read-out: IC50 Nav1.7
hNav1.3 = hNav1.3 (Homo sapiens, UniProt Q9NY46); conditions: IonWorks Quattro; read-out: IC50 Nav1.3
hNav1.4 [6] = target: T3, hNav1.4; conditions: for IC50: PatchXpress, * = at high concentrations compound would wash off slowly or not at all, read-out: PX hNav1.4 Tonic IC50; for Nav1.4/Nav1.7: ratio of PX IC50 values

T1 sequence (Q15858 whole entry): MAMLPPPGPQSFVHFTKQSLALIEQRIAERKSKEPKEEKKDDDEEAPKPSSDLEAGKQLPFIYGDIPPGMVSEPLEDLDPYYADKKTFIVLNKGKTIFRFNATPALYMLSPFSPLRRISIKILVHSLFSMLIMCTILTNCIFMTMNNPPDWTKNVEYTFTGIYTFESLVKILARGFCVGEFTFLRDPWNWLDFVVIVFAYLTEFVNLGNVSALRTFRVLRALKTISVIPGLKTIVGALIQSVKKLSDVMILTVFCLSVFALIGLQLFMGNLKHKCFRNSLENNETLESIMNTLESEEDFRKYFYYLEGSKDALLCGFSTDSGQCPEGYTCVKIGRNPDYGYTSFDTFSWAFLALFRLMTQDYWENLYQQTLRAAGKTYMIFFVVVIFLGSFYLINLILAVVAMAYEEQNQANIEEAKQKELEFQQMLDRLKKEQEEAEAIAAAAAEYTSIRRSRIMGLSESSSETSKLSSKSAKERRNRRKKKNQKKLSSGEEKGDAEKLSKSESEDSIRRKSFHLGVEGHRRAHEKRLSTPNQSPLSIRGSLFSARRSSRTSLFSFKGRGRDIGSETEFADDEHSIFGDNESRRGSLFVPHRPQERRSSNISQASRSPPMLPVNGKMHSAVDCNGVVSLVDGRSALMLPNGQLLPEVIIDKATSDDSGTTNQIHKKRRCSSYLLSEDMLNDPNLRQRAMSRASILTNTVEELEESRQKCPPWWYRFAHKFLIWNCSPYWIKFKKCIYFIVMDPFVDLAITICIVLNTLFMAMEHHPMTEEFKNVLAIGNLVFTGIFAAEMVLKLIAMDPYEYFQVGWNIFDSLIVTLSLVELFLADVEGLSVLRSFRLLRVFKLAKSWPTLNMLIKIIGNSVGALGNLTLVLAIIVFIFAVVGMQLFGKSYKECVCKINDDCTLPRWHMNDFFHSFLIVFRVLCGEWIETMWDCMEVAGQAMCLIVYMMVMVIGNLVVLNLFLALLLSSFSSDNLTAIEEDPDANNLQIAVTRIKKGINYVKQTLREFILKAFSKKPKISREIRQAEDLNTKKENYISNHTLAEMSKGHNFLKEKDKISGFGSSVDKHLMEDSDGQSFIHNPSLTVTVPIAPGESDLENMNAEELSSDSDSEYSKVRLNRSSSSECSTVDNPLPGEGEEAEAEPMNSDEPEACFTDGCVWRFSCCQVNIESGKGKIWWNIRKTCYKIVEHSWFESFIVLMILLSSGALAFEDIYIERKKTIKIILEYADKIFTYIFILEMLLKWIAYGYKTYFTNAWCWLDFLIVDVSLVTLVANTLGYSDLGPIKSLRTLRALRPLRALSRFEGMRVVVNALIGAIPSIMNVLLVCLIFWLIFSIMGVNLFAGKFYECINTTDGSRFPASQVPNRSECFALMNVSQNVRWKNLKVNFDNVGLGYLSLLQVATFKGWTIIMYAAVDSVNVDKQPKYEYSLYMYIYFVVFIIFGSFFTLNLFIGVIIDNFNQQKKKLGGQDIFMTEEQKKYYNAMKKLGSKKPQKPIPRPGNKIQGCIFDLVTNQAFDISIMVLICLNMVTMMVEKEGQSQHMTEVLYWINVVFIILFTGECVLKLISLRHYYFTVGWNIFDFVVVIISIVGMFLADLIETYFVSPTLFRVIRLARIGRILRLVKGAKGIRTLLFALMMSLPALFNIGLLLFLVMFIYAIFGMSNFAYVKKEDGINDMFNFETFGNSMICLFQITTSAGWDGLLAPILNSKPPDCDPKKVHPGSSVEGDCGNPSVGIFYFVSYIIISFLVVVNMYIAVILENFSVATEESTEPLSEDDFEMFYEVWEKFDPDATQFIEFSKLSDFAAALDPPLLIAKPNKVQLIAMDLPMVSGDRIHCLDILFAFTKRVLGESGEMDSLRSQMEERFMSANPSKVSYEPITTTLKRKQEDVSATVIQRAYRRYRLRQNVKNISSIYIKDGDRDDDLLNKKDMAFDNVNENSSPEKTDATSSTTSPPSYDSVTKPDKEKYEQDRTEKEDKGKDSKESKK
T2 sequence (Q14524 whole entry): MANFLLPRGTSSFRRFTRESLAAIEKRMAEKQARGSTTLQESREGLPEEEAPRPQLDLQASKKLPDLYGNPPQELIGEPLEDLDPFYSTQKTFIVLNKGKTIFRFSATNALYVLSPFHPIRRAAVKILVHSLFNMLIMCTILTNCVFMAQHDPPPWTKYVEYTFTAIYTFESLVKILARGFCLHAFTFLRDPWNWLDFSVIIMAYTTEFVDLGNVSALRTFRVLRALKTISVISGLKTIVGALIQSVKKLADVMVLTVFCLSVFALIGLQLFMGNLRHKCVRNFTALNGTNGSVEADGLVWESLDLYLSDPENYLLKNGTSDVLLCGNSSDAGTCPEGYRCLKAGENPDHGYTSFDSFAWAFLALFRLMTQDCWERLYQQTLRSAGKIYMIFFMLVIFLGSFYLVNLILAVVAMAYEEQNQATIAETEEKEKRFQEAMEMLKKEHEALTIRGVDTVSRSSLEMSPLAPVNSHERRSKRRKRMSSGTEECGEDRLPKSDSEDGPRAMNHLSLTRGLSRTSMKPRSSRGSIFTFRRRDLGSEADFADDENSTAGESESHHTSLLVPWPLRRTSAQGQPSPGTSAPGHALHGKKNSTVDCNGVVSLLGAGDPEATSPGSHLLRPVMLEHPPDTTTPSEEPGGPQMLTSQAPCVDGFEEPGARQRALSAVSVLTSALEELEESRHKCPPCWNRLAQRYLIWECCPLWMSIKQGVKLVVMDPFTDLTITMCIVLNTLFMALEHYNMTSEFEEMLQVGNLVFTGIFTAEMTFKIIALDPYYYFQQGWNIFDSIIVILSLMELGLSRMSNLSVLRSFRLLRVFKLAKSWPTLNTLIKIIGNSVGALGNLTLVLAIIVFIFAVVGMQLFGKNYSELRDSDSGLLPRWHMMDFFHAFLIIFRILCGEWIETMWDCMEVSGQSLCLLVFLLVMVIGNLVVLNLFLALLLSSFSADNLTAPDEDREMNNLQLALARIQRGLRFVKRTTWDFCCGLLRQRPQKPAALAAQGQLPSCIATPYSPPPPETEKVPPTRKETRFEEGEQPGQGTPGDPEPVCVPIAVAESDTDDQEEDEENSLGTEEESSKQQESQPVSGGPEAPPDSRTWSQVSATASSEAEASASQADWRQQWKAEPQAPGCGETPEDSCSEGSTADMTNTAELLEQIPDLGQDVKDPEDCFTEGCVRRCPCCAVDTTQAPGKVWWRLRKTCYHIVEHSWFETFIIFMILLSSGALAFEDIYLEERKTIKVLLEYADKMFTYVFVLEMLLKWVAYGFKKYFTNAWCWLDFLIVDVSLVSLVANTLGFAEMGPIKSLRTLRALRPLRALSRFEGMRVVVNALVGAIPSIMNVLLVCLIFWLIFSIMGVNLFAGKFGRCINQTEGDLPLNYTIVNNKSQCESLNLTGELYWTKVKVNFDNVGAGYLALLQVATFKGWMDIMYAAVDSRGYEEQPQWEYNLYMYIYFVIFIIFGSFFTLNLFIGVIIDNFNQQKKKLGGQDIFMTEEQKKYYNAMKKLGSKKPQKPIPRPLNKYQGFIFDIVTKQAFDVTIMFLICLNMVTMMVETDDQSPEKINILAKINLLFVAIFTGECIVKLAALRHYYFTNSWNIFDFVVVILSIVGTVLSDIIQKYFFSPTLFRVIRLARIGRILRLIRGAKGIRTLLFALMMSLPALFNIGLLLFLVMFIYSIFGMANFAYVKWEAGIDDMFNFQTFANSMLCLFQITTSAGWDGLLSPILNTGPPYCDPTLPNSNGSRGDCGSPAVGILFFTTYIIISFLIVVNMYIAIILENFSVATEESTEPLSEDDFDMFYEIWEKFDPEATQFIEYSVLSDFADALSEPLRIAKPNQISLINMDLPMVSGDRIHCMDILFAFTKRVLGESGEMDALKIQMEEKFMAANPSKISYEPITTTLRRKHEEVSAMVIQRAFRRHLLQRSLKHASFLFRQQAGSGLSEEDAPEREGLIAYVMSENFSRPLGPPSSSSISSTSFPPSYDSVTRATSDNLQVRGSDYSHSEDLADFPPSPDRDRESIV

Compound	IC50 (hNav1.7 [1])	IC50 (hNav1.5 [2])	IC50 (hNav1.4 [3])	Nav1.4/Nav1.7 (hNav1.4 [3])	IC50 (hNav1.5 [4])	IC50 (hNav1.7 [5])	IC50 (hNav1.3)	IC50 (hNav1.4 [6])	Nav1.4/Nav1.7 (hNav1.4 [6])	Nav1.5/Nav1.7 (hNav1.5 [4]; ratio of PX IC50 values)
CC[C@H](C)[C@H](NC(=O)[C@@H](NC(=O)[C@H](CCCCN)NC(=O)[C@H](CCCNC(=N)N)NC(=O)[C@@H]1CSSC[C@@H]2NC(=O)[C@H](C)NC(=O)[C@H](CCCNC(=N)N)NC(=O)[C@H](CCCCN)NC(=O)[C@H](CO)NC(=O)[C@H](CC(=O)O)NC(=O)[C@@H]3CSSC[C@H](NC(=O)[C@H](CCC(=O)O)NC(=O)[C@H](CC(C)C)NC(=O)CNC(=O)[C@H](CCC(=O)O)NC(=O)[C@H](CSSC[C@H](NC(=O)[C@@H](N)Cc4ccc(O)cc4)C(=O)N[C@@H](CCC(N)=O)C(=O)N[C@@H](CCCCN)C(=O)N[C@@H](Cc4c[nH]c5ccccc45)C(=O)N[C@@H](CCSC)C(=O)N[C@@H](Cc4c[nH]c5ccccc45)C(=O)N[C@@H]([C@@H](C)O)C(=O)N3)NC2=O)C(=O)N[C@@H](CCCCN)C(=O)N[C@@H](CC(C)C)C(=O)N[C@@H](Cc2c[nH]c3ccccc23)C(=O)N1)[C@@H](C)CC)C(N)=O [compound 63]	7 nM	9800 nM	> 5000 nM	14	9330 nM	360 nM	> 5000 nM			
CC[C@H](C)[C@H](NC(=O)[C@@H](NC(=O)[C@H](CCCCN)NC(=O)[C@H](CCCNC(=N)N)NC(=O)[C@@H]1CSSC[C@@H]2NC(=O)[C@H](C)NC(=O)[C@H](CCCNC(=N)N)NC(=O)[C@H](CCCCN)NC(=O)[C@H](CO)NC(=O)[C@H](CC(=O)O)NC(=O)[C@@H]3CSSC[C@H](NC(=O)[C@H](CC(=O)O)NC(=O)[C@H](CC(C)C)NC(=O)CNC(=O)[C@H](CCC(=O)O)NC(=O)[C@H](CSSC[C@H](NC(=O)[C@@H](N)Cc4ccc(O)cc4)C(=O)N[C@@H](CCC(N)=O)C(=O)N[C@@H](CCCCN)C(=O)N[C@@H](Cc4c[nH]c5ccccc45)C(=O)N[C@@H](CCSC)C(=O)N[C@@H](Cc4c[nH]c5ccccc45)C(=O)N[C@@H]([C@@H](C)O)C(=O)N3)NC2=O)C(=O)N[C@@H](CCCCN)C(=O)N[C@@H](CC(C)C)C(=O)N[C@@H](Cc2c[nH]c3ccccc23)C(=O)N1)[C@@H](C)CC)C(N)=O [compound 115]	749 nM	11100 nM	> 5000 nM	53	3200 nM	90 nM	> 5000 nM	7600 nM	10	4
CC[C@H](C)[C@H](NC(=O)[C@@H](NC(=O)[C@H](CCCCN)NC(=O)[C@H](CCCNC(=N)N)NC(=O)[C@@H]1CSSC[C@@H]2NC(=O)[C@H](C)NC(=O)[C@H](CCCNC(=N)N)NC(=O)[C@H](CCCCN)NC(=O)[C@H](CO)NC(=O)[C@H](CC(=O)O)NC(=O)[C@@H]3CSSC[C@H](NC(=O)CNC(=O)[C@H](CC(C)C)NC(=O)CNC(=O)[C@H](CCC(=O)O)NC(=O)[C@H](CSSC[C@H](NC(=O)[C@@H](N)Cc4ccc(O)cc4)C(=O)N[C@@H](CCC(N)=O)C(=O)N[C@@H](CCCCN)C(=O)N[C@@H](Cc4c[nH]c5ccccc45)C(=O)N[C@@H](CCSC)C(=O)N[C@@H](Cc4c[nH]c5ccccc45)C(=O)N[C@@H]([C@@H](C)O)C(=O)N3)NC2=O)C(=O)N[C@@H](CCCCN)C(=O)N[C@@H](CC(C)C)C(=O)N[C@@H](Cc2c[nH]c3ccccc23)C(=O)N1)[C@@H](C)CC)C(N)=O [compound 121]	7.8 nM	9800 nM	1900 nM	29	14100 nM	60 nM	980 nM	197 nM	25	
CCCC[C@@H]1NC(=O)[C@H](Cc2c[nH]c3ccccc23)NC(=O)[C@H](CCCCN)NC(=O)[C@H](CCC(N)=O)NC(=O)[C@@H](NC(=O)[C@@H](N)Cc2ccc(O)cc2)CSSC[C@@H]2NC(=O)[C@@H]3CSSC[C@@H](C(=O)N[C@@H](CCCNC(=N)N)C(=O)N[C@@H](CCCCN)C(=O)N[C@H](C(=O)N[C@H](C(N)=O)[C@@H](C)CC)[C@@H](C)CC)NC(=O)[C@H](Cc4c[nH]c5ccccc45)NC(=O)[C@H](CC(C)C)NC(=O)[C@H](CCCCN)NC(=O)[C@H](CSSC[C@H](NC(=O)[C@H]([C@@H](C)O)NC(=O)[C@H](Cc4c[nH]c5ccccc45)NC1=O)C(=O)N[C@@H](CC(=O)O)C(=O)N[C@@H](CO)C(=O)N[C@@H](CCCCN)C(=O)N[C@@H](CCCNC(=N)N)C(=O)N[C@@H](C)C(=O)N3)NC(=O)[C@H](CCCNC(=N)N)NC(=O)[C@H](CC(C)C)NC(=O)CNC(=O)[C@H](CCC(=O)O)NC2=O [compound 272]	0.586 nM	> 5000 nM	> 5000 nM			> 5000 nM	> 5000 nM			
CC[C@H](C)[C@H](NC(=O)[C@H](Cc1ccc(O)cc1)NC(=O)[C@H](CCCCN)NC(=O)[C@H](CCCNC(=N)N)NC(=O)[C@@H]1CSSC[C@@H]2NC(=O)[C@H](C)NC(=O)[C@H](CCCNC(=N)N)NC(=O)[C@H](CCCCN)NC(=O)[C@H](CO)NC(=O)[C@H](CC(=O)O)NC(=O)[C@@H]3CSSC[C@H](NC(=O)[C@H](CCCNC(=N)N)NC(=O)[C@H](CC(C)C)NC(=O)CNC(=O)[C@H](CCC(=O)O)NC(=O)[C@H](CSSC[C@H](NC(=O)[C@@H](N)CCC(=O)O)C(=O)N[C@@H](CCC(N)=O)C(=O)N[C@@H](CCCCN)C(=O)N[C@@H](Cc4c[nH]c5ccccc45)C(=O)N[C@@H](CCSC)C(=O)N[C@@H](Cc4c[nH]c5ccccc45)C(=O)N[C@@H]([C@@H](C)O)C(=O)N3)NC2=O)C(=O)N[C@@H](CCCCN)C(=O)N[C@@H](CC(C)C)C(=O)N[C@@H](Cc2c[nH]c3ccccc23)C(=O)N1)C(N)=O [compound 278]		> 5000 nM	700 nM	16		46 nM	300 nM			
CC[C@H](C)[C@H](NC(=O)[C@@H](NC(=O)[C@H](CCCCN)NC(=O)[C@H](CCCNC(=N)N)NC(=O)[C@@H]1CSSC[C@@H]2NC(=O)[C@H](C)NC(=O)[C@H](CCCNC(=N)N)NC(=O)[C@H](CCCCN)NC(=O)[C@H](CO)NC(=O)[C@H](CC(=O)O)NC(=O)[C@@H]3CSSC[C@H](NC(=O)[C@H](CCCNC(=N)N)NC(=O)[C@H](CC(C)C)NC(=O)CNC(=O)[C@H](CCC(=O)O)NC(=O)[C@H](CSSC[C@H](NC(=O)[C@@H](N)CCC(=O)O)C(=O)N[C@@H](CCC(N)=O)C(=O)N[C@@H](CCCCN)C(=O)N[C@@H](Cc4c[nH]c5ccccc45)C(=O)N[C@@H](CCSC)C(=O)N[C@@H](Cc4cccc5ccccc45)C(=O)N[C@@H]([C@@H](C)O)C(=O)N3)NC2=O)C(=O)N[C@@H](CCCCN)C(=O)N[C@@H](CC(C)C)C(=O)N[C@@H](Cc2c[nH]c3ccccc23)C(=O)N1)[C@@H](C)CC)C(N)=O [compound 281]		> 5000 nM	700 nM and 500 nM			32 nM and 47 nM	400 nM and 500 nM			

Reference: US9636418B2 (priority 2013, dated 2017)
